# Assay results reported in patent publication US20210154162A1, “DRUG AND PHARMACEUTICAL COMPOSITION CONTAINING TRANSPORT PROTEIN INHIBITOR, AND USE” (Institute of Basic Medical Sciences Chinese Academy of …, priority 2018, published 2021).
# Key:
# OVA-B16 TRCs = assay: OVA-B16 TRC / activated OT-1 T cell co-culture with IDO1 or SLC1A5 blockade (flow cytometry); type: cell-based, mouse; conditions: for expression of IFN-γ, TNF-α and CD107a: T cells in co-culture with OVA-B16 TRCs; for PD-1 expression on T cells: co-culture with OVA-B16 TRCs, 24 h; for TRC apoptosis: co-culture with activated OT-1 T cells, 4 h
# Experimental: (7) Scramble- or shIDO1-(Sh1 or Sh2)-OVA B16 TRCs were co-cultured with anti-CD3/CD28 bead-activated OT-1 T cells. After 4 h or 24 h, TRC apoptosis (as shown in FIG. 2G) or PD-1 expression on T cells (as shown in FIG. 2H) was analyzed by flow cytometry. The analysis results were as shown in FIG. 2G and FIG. 2H, respectively.
# (9) Scramble- and shSLC1A5-(Sh1 or Sh2)-OVA B16 TRCs were co-cultured with anti-CD3/CD28 bead-activated OT-1 T cells. After 4 h or 24 h, TRC apoptosis (as shown in FIG. 2J) or PD-1 expression (as shown in FIG. 2K) was analyzed by flow cytometry. The analysis results were as shown in FIG. 2J and FIG. 2K, respectively.
# PD-1 [1] = assay: PD-1 expression in patients' peripheral blood T cells treated with supernatants of IFN-γ-treated CD45- tumor cells; type: cell-based, human; conditions: CD45- tumor cells treated with IFN-γ with or without 1-MT 24 h; supernatants on T cells 24 h
# Experimental: Moreover, very high PD-1 expression was found in tumor-infiltrating CD8^+ T cells of breast and colon cancer patients (FIG. 7A). […] It was worth noting that Kyn levels were strongly correlated with PD-1 expression in breast and colon cancer patients, but not in healthy people (FIG. 7C). To clarify the cellular source of the Kyn production, CD45^+ immune cells and CD45^− tumor cells isolated from breast tumor tissues (n=10) and colon tumor tissues (n=14) of patients were analyzed. IDO1 expression as well as Kyn levels were dominantly high in CD45^− cells rather than CD45^+ cells. Then, the inventors treated CD45^− tumor cells with IFN-γ in the presence or absence of 1-MT for 24 hours in vitro. The supernatants were used to treat peripheral blood T cells of patients for 24 hours.
# PAT4 and SLC7A8 [2] = assay: PAT4 and SLC7A8 expression in activated CD8+ T cells (real-time PCR, immunostaining); type: cell-based, mouse
# Experimental: (2) Activated CD8^+ T cells were treated with PBS or Kyn (200 μM) for 24 h. The expression of PAT4 and SLC7A8 was determined by real-time PCR (left) and immunostaining (right). Bar, […].
# (6) The mRNA expression of PAT4 and SLC7A8 was determined in activated CD8^+ T cells treated with PBS, Kyn, Kyn/CH-223191 (10 μM) or Kyn/DMF (20 μM) for 48 h.
# IDO1 = IDO1 expression in TRCs upon IFN-γ; type: cell-based
# PD-L1 = PD-L1 expression on TRCs upon IFN-γ; type: cell-based, mouse
# SLC1A5 [3] = assay: SLC1A5 expression in TRCs upon IFN-γ; type: cell-based; conditions: IFN-γ treatment, mRNA and protein levels
# B16 TRCs = assay: Kyn release by IFN-γ-treated tumor cells (ELISA of supernatants); type: cell-based, mouse; conditions: IFN-γ 10 ng/ml, 24 h
# Experimental: (3) OVA-B16 cells grown in culture flask or OVA-B16 TRCs were treated with IFN-γ (10 ng/ml) for 24 h. Kyn levels in the supernatants were determined by ELISA.
# PD-1 [4] = assay: ID8 ovarian cancer and H22 hepatocarcinoma ascites peritoneal tumor models; type: in vivo, mouse; conditions: DMF
# Experimental: (10) C57BL/6 mice were intraperitoneally injected with 1×10^6 ID8 ovarian cancer cells. After 10 days, mice were intraperitoneally administered with PBS, Kyn, DMF or Kyn+DMF for 6 days. CD8^+ T cells from ascites were isolated and PD-1 expression was determined by flow cytometry (n=5).
# AhR = assay: PD-1 expression in activated CD8+ T cells treated with Kyn plus AhR inhibitor (flow cytometry); type: cell-based, mouse; conditions: Kyn plus inhibitor (DMF 10 or 20 μM), 72 h
# Experimental: (4) CD8^+ T cells activated by anti-CD3/CD28 beads were treated with PBS, Kyn or Kyn/DMF (10 or 20 μM) for 72 h. The expression of PD-1 was determined by flow cytometry.
# PD-1 [5] = assay: OVA-B16 melanoma-bearing mice with adoptively transferred CFSE-labeled OT-1 T cells, PD-1 expression; type: in vivo, mouse; conditions: DMF 5 μg/mouse, 6 days; CFSE+ T cells from tumor mass, spleen or lymph nodes
# Experimental: (6) C57BL/6 mice with 5×5 mm OVA-B16 melanoma were adoptively transferred with CFSE-labeled OT-1 CD8^+ T cells (4×10^6 cells/mouse, once every three days) on three occasions. At the same time, some mice were i.p. injected with Kyn (50 μg/mouse, once every two days) for three times. On Day 7 after transferring, CFSE^+CD8^+ T cells were isolated from tumor for flow cytometric analysis of PD-1 expression.
# (8) The experimental steps were the same as those of step (7), except that C57BL/6 mice were treated with Kyn, DMF (5 μg/mouse, o.t., twice every day) or Kyn+DMF for 6 days. CFSE^+CD8^+ T cells from tumor were isolated for flow cytometric analysis of PD-1 expression.
# OVA-B16 melanoma = OVA-B16 melanoma mice, adoptive OT-1 CD8+ T cell transfer plus DMF or anti-PD-1 antibody; type: in vivo; conditions: anti-PD-1 antibody 250 μg/day or DMF 5 μg/mouse twice every day
# Experimental: (13) C57BL/6 mice with 5×5 mm OVA-B16 melanoma were adoptively transferred with or without OT-1 CD8^+ T cells (4×10^6 cells/mouse) once per three days for three times. At the same time, these mice were treated with PBS, DMF (5 μg/mouse, o.t., twice every day) or anti-PD-1 neutralizing antibody (250 μg/day, once every two days, twice) for 20 days. The tumor growth was measured (left) and the long-term survival rate was analyzed (right).
# B16 melanoma = assay: B16 melanoma-bearing C57BL/6 mice treated with Kyn, DMF or Kyn+DMF; type: in vivo, mouse
# Experimental: (9) C57BL/6 mice with 5×5 mm B16 melanoma were treated with PBS, Kyn (50 μg/mouse, i.p., once every two days), DMF (5 μg/mouse, o.t., once every day) or Kyn+DMF for 6 days. PD-1 expression in CD8^+ T cells isolated from tumors was determined by flow cytometry (n=5). (14) The experimental steps were the same as those of step (9), except that the tumors were weighed. The weighing results were as shown in FIG. 6P. *p<0.05, **p<0.01; #p<0.05, ##p<0.01, as compared with CTL group. The data represented mean±SEM.
# PAT4 and SLC7A8 [6] = assay: PAT4 and SLC7A8 expression in CD8+ T cells from breast cancer patients (real-time PCR); type: cell-based, human; conditions: Kyn/DMF (20 μM) or Kyn/CH (50 μM), 48 h
# Experimental: (8) CD8^+ T cells from breast cancer patients were treated with PBS, Kyn ([…] (20 μM) or Kyn/CH (50 μM) for 48 h. The expression of PAT4 and SLC7A8 was determined by real-time PCR. The determination results were as shown in FIG. 7I.
# PD-1 [7] = assay: PD-1 expression in human CD8+ T cells treated with Kyn and AhR inhibitors (flow cytometry); type: cell-based; conditions: 48 h
# Experimental: (4) CD8^+ T cells isolated from PBMCs of patients with breast cancer or lung cancer were activated by anti-CD3/CD28 beads and treated with PBS, Kyn (200 μM) or Kyn/DMF (20 μM) for 48 h. The expression of PD-1 was determined by flow cytometry.
# (5) CD8^+ T cells isolated from patients with breast cancer or lung cancer were treated with DMF (20 μM) for 48 h. PD-1 expression was determined by flow cytometry (n=6).
# PD-1 [8] = assay: Effect of GPNA on PD-1 expression in specific OT-1 CD8+ T cells co-cultured with 3D-cultured OVA-B16 cells; type: cell-based, mouse; conditions: 3D-cultured OVA-B16 cells treated 12 h with 10 μM GPNA, co-culture 1:10, 4 h
# Experimental: 3D-cultured OVA-B16 cells were grouped and treated with drug as follows.
# (§1) Control group 1 (PBS): culture medium+PBS;
# Experimental group 2 (GPNA): culture medium+10 μM GPNA;
# After 12 h of treatment, the cells were co-cultured with OT-1 CD8^+ T cells that had been activated for 48 h at a ratio of 1:10, and PD-1 expression in CD8^+ T cells was determined by flow cytometry after 4 h.
# [9] = target: T1, tryptophan transporter SLC1A5 (Mus musculus, UniProt P51912); assay: Effect of GPNA on the uptake of tryptophan by tumor cells (ELISA of lysates); type: cell-based; conditions: OVA-B16 cells, 50 ng/mL IFN-γ + 10 μM GPNA, 24 h
# T1 construct: endogenous in cells; host or cells: mouse OVA-B16 melanoma cells
# T1 sequence (P51912 1-553): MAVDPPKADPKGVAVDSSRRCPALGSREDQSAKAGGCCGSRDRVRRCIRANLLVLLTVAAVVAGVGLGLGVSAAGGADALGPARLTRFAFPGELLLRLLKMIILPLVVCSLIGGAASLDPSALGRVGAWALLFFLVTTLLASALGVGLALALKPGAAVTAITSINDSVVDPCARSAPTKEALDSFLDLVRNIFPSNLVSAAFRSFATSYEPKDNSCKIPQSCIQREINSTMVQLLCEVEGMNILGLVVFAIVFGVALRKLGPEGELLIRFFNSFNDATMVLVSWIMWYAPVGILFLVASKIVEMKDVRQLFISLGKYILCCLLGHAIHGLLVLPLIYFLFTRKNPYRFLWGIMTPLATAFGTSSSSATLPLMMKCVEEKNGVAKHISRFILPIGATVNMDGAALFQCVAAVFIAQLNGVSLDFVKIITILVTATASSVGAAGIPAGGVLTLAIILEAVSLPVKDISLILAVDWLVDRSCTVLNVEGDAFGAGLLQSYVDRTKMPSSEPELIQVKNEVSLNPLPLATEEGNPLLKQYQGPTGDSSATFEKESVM
# Experimental: Mouse OVA-B16 cells were cultured in RPMI-1640 culture medium in vitro and were group and treated as follows.
# as §1
# Control group 2 (GPNA): culture medium+10 μM GPNA;
# Experimental group 3 (IFN-γ): culture medium+50 ng/mL IFN-γ;
# Experimental group 4 (IFN-γ+GPNA): culture medium+50 ng/mL IFN-γ+10 μM GPNA;
# The cells in each group were collected after 24 h and ultrasonically broken, the concentrations of tryptophan in the lysates were determined by ELISA, and BCA protein assay was carried out at the same time.
# SLC1A5 [10] = target: T2, SLC1A5 (Mus musculus, UniProt P51912); assay: Tryptophan levels in B16 TRC lysates (ELISA); type: cell-based
# T2 construct: endogenous in cells; host or cells: B16 tumor-repopulating cells (TRCs)
# T2 sequence (P51912 1-553): T1 sequence (P51912 1-553)
# Experimental: (8) Tryptophan levels in cell lysates were determined by ELISA in scramble- and shSLC1A5-(Sh1 or Sh2)-B16 TRCs in the presence or absence of IFN-γ for 24 h.
molecule,measurement,setting,value
Cn1cc(C[C@@H](N)C(=O)O)c2ccccc21 [1-MT],"expression of IFN-γ, TNF-α and CD107a",OVA-B16 TRCs,upregulation
same,PD-1 expression on T cells,OVA-B16 TRCs,downregulation
same,TRC apoptosis,OVA-B16 TRCs,more TRC apoptosis
same,PD-1 upregulation in CD8+ T cells by supernatants,PD-1 [1],blocked
IFN-γ: recombinant IFN-γ purchased from R & D Systems,expression of PAT4 and SLC7A8,"PAT4 and SLC7A8 [2]; CD8+ T cells, IFN-γ treatment",did not affect
same,IDO1 expression,IDO1,further upregulated
same,expression of PD-L1,PD-L1,upregulated
same,expression of SLC1A5,SLC1A5 [3],further augmented
same,Kyn levels in the supernatants,B16 TRCs,release high levels of Kyn
"COc1ccc(-c2cc(=O)c3ccccc3o2)cc1OC [DMF, 3′,4′-dimethoxyflavone]",Kyn-induced upregulation of SLC7A8 and PAT4,"PAT4 and SLC7A8 [2]; activated CD8+ T cells, Kyn/CH-223191 (10 μM) or Kyn/DMF (20 μM), 48 h",effectively inhibiting
same,"expression pattern of PD-1, IFN-γ and TNF-α",PD-1 [4],reversed
same,Kyn-dependent upsurge of PD-1,AhR,thwarted
same,Kyn-triggered upregulation of PD-1 expression in tumor-specific CD8+ T cells,PD-1 [5],abrogated
same,"therapeutic effect of adoptively transferred OVA-specific CD8+ T cells (tumor growth, survival)",OVA-B16 melanoma,equal treatment efficiency
same,accelerated tumor growth seen with Kyn-treatment,B16 melanoma; Kyn+DMF,reversed
same,"Kyn-induced PD-1 upregulation in CD8+ T cells isolated from tumor, spleen or lymph nodes","B16 melanoma; Kyn+DMF (5 μg/mouse), 6 days",blocked
same,Kyn-induced upregulation of SLC7A8 and PAT4,PAT4 and SLC7A8 [6],blocked
same,Kyn-induced PD-1 upregulation,"PD-1 [7]; human CD8+ T cells, Kyn plus inhibitor (DMF 20 μM)",inhibited
same,PD-1 expression,"PD-1 [7]; patients' CD8+ T cells, DMF alone 20 μM",directly downregulate PD-1 expression
"N[C@@H](CCC(=O)Nc1ccc([N+](=O)[O-])cc1)C(=O)O [GPNA, L-γ-Glutamyl-p-nitroanilide]","expression of IFN-γ, TNF-α and CD107a",OVA-B16 TRCs,upregulation
same,PD-1 expression on T cells,OVA-B16 TRCs,downregulation
same,TRC apoptosis,OVA-B16 TRCs,more TRC apoptosis
same,PD-1 expression in specific OT-1 CD8+ T cells,PD-1 [8],significantly inhibit
same,uptake of tryptophan by tumor cells,[9],significantly reduced
same,intracellular levels of tryptophan in TRCs,SLC1A5 [10],decreased
